# Data reported in patent publication US6605595B1, “Avermectin derivatives” (The Kitasato Institute, priority 1999, dated 2003).
# System: Adult Musca domestica of WHO(N) species
# Assay: Filter test on flies (Musca domestica), ingestion/contact method
# Type: in vivo
# Details: time of reading not stated (1, 3, 5 and 24 hours)
# Protocol: Filter test on flies (Musca domestica)—ingestion/contact method
# Test animals: Adult Musca domestica of WHO(N) species
# In order to prepare a suitable formulation a solution of active compound is prepared froom 20 mg of active compound and 1 ml of DMSO. The active compound solution is diluted with water to the concentration required in each case.
# 2 ml of this preparation of active compound are pipetted onto filter paper discs (of a diameter of 9.5 cm) contained in Petri dishes of the appropriate size. After drying the filter discs, 100 μl of the active compound formulation and 400 μl of a sugar solution are poured onto a block of household sponge cloth measuring 1 cm^2 and placed in a blister well on the filter disc. 25 CO2-intoxicated test animals are transferred to the Petri dishes and covered.
# After 1, 3, 5 and 24 hours the activity of the active compound preparation is determined. 100% means that all of the flies have been destroyed; 0% means that none of the flies have been destroyed.
structure (smiles),measurement,setting,value
CCC(C)C1OC2(C=CC1C)CC1CC(CC=C(C)C(OC3CC(OC)C(OC4CC(OC)C(=CCNOC)C(C)O4)C(C)O3)C(C)C=CC=C3COC4C(O)C(C)=CC(C(=O)O1)C34O)O2 (centres unmarked) [Compound 69],activity (100% = all of the flies destroyed),10 ppm,50%
same,activity (100% = all of the flies destroyed),100 ppm,100%
